Earlier results in patent EP1921109A2, “Grafted cyclodextrin” (Cellresin Technologies, LLC, priority 2004, dated 2005).

Conditions: not given

Flavor Threshold ppb in Water	Odor Threshold ppb in Water	Compound
1.07 ppb	0.53 ppb	CCCCCCCCCC=O [Decanal]
0.13 ppb	0.13 ppb	CCCC(=O)OCC [Ethyl butyrate]
40.0 ppb	–	CC(C)=CCC/C(C)=C/C=O [Geranial]
3.66 ppb	9.18 ppb	CCCCCC=O [Hexanal]
3.8 ppb	5.3 ppb	C=CC(C)(O)CCC=C(C)C (centres unmarked) [Linalool]
41.4 ppb	85 ppb	CC(C)=CCC/C(C)=C\C=O [Neral]
0.52 ppb	1.41 ppb	CCCCCCCC=O [Octanal]
1014 ppb	9.5 ppb	CC1=CCC2CC1C2(C)C (stereo not drawn) [α-Pinene]
300 ppb	280 ppb	CC1=CCC(C(C)(C)O)CC1 (stereo not drawn) [α-Terpineol]
42 ppb	36 ppb	C=CC(=C)CCC=C(C)C [β-Myrcene]

Compound	Flavor Threshold ppb in Water	Odor Threshold ppb in Water
C=C(C)[C@H]1CC=C(C)CC1 [Limonene]	210 ppb	60 ppb

Conditions: aqueous solutions

Compound	Concentrations of TCA detected in untrained panels
COc1c(Cl)cc(Cl)cc1Cl [TCA, 2,4,6-trichloroanisole]	20 - 30 ppt

Same assay, conditions: aqueous solutions; as low as

Compound	Concentrations of TCA detected by trained panels
COc1c(Cl)cc(Cl)cc1Cl [TCA, 2,4,6-trichloroanisole]	5 - 10 ppt
